The test system of the experiment is L1210 leukemia ip in BDF1 mice, survival T/C. The experiment in a line: NCI In Vivo Anticancer Drug Screen. Data for tumor model L1210 Leukemia (intraperitoneal) in B6D2F1 (BDF1) mice. The conditions noted are these: higher = longer survival. In outline: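 In this screen, tumor-bearing mice given compound are compared to those given vehicle, and their survival values are reported as a treated-to-control quotient.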

Where [1] appears, read: endpoint: mean survival time, dose: 100.0 mg/kg/injection, schedule: Q01DX009 (ip), vehicle: saline with Tween-80.
[2] abbreviates: endpoint: mean survival time, dose: 200.0 mg/kg/injection, schedule: Q01DX009 (ip), vehicle: saline with Tween-80.
[3] abbreviates: endpoint: mean survival time, dose: 50.0 mg/kg/injection, schedule: Q01DX009 (ip), vehicle: saline with Tween-80.
[4] abbreviates: endpoint: mean survival time, dose: 25.0 mg/kg/injection, schedule: Q04DX003 (ip), vehicle: saline with Tween-80.
Setting [5] is: endpoint: mean survival time, dose: 50.0 mg/kg/injection, schedule: Q04DX003 (ip), vehicle: saline with Tween-80.
[6] abbreviates: endpoint: mean survival time, dose: 100.0 mg/kg/injection, schedule: Q04DX003 (ip), vehicle: saline with Tween-80.
The mark [7] stands for this setting: endpoint: mean survival time, dose: 100.0 mg/kg/injection, schedule: Q01DX009 (ip), vehicle: Klucel (hydroxypropylcellulose) (HPC).
Where [8] appears, read: endpoint: mean survival time, dose: 200.0 mg/kg/injection, schedule: Q01DX009 (ip), vehicle: Klucel (hydroxypropylcellulose) (HPC).
The mark [9] stands for this setting: endpoint: mean survival time, dose: 5.0 mg/kg/injection, schedule: Q01DX001 (ip), vehicle: saline.
The mark [10] stands for this setting: endpoint: mean survival time, dose: 10.0 mg/kg/injection, schedule: Q01DX001 (ip), vehicle: saline.
The mark [11] stands for this setting: endpoint: mean survival time, dose: 20.0 mg/kg/injection, schedule: Q01DX001 (ip), vehicle: saline.

The structures appear in SMILES notation. Where “and” joins values, the source holds several entries; their conditions need not be identical. Equal entries are not always repeated. Toxic doses and inconclusive results are not listed.

`CC1(C)OC(=O)CC(=O)O1`: the T/C is, setting by setting: under setting [1], 94 % of control; (endpoint: mean survival time, dose: 100.0 mg/kg/injection, schedule: Q01DX009 (ip), vehicle: saline) 100 % of control; (endpoint: mean survival time, dose: 100.0 mg/kg/injection, schedule: Q04DX003 (ip), vehicle: saline) 91 % of control; under setting [2], 94 % of control; (endpoint: mean survival time, dose: 200.0 mg/kg/injection, schedule: Q01DX009 (ip), vehicle: saline) 93 % of control; (endpoint: mean survival time, dose: 200.0 mg/kg/injection, schedule: Q04DX003 (ip), vehicle: saline) 91 % of control. The T/C is, setting by setting: (endpoint: mean survival time, dose: 400.0 mg/kg/injection, schedule: Q01DX009 (ip), vehicle: saline) 87 % of control; (endpoint: mean survival time, dose: 400.0 mg/kg/injection, schedule: Q04DX003 (ip), vehicle: saline) 93 % of control.

On to `C=CC1(O)CCCC1`, for which the T/C was 100 % of control under setting [3], 107 % of control under setting [1] and 96 % of control under setting [2].

On to `CCCCCCCCCCCCCCCCCc1nc(N)nc(N(C)C)n1`, for which the T/C is 97 % of control under setting [4], 96 % of control under setting [5] and 97 % of control under setting [6].

As for `Cc1ccc(C(=O)/C=C/c2ccc(N(C)C)cc2)cc1`, the T/C is 90 % of control under setting [1]; 93 % of control under setting [2]; 97 % of control (endpoint: mean survival time, dose: 400.0 mg/kg/injection, schedule: Q01DX009 (ip), vehicle: saline with Tween-80).

For the compound `c1cnc(OCCN2CC2)nc1`, the T/C is 93 % of control (endpoint: mean survival time, dose: 25.0 mg/kg/injection, schedule: Q01DX001 (ip), vehicle: carboxymethylcellulose (CMC)) and 95 % of control (endpoint: mean survival time, dose: 50.0 mg/kg/injection, schedule: Q01DX001 (ip), vehicle: carboxymethylcellulose (CMC)).

Take `Brc1ccc2c(c1)-c1ccccc1C1=NCCN12`: the T/C by setting is: (endpoint: mean survival time, dose: 5.0 mg/kg/injection, schedule: Q01DX009 (ip), vehicle: Klucel (hydroxypropylcellulose) (HPC)) 100 % of control; (endpoint: mean survival time, dose: 10.0 mg/kg/injection, schedule: Q01DX009 (ip), vehicle: Klucel (hydroxypropylcellulose) (HPC)) 101 % of control; (endpoint: mean survival time, dose: 20.0 mg/kg/injection, schedule: Q04DX003 (ip), vehicle: Klucel (hydroxypropylcellulose) (HPC)) 86 % of control.

With `N=c1nc2n(cc1F)[C@@H]1O[C@H](CO)[C@@H](O)[C@@H]1O2`, the T/C runs as follows: under setting [7], 187 % of control; under setting [8], 177 % of control; (endpoint: mean survival time, dose: 400.0 mg/kg/injection, schedule: Q01DX001 (ip), vehicle: Klucel (hydroxypropylcellulose) (HPC)) 113 % of control; (endpoint: mean survival time, dose: 400.0 mg/kg/injection, schedule: Q04DX002 (ip), vehicle: Klucel (hydroxypropylcellulose) (HPC)) 165 % of control and 173 % of control; (endpoint: mean survival time, dose: 600.0 mg/kg/injection, schedule: Q04DX002 (ip), vehicle: Klucel (hydroxypropylcellulose) (HPC)) 180 % of control; (endpoint: mean survival time, dose: 800.0 mg/kg/injection, schedule: Q01DX001 (ip), vehicle: Klucel (hydroxypropylcellulose) (HPC)) 116 % of control. Also, the T/C by setting is: (endpoint: mean survival time, dose: 2000.0 mg/kg/injection, schedule: Q01DX001 (ip), vehicle: Klucel (hydroxypropylcellulose) (HPC)) 123 % of control; (endpoint: mean survival time, dose: 2000.0 mg/kg/injection, schedule: Q01DX001 (ip), vehicle: saline) 152 % of control; (endpoint: median survival time, dose: 25.0 mg/kg/injection, schedule: Q03HX024 (ip), vehicle: water) 255 % of control; (endpoint: median survival time, dose: 50.0 mg/kg/injection, schedule: Q01DX009 (ip), vehicle: steriod suspending solution) 175 % of control; (endpoint: median survival time, dose: 50.0 mg/kg/injection, schedule: Q03HX024 (ip), vehicle: water) 610 % of control; (endpoint: median survival time, dose: 100.0 mg/kg/injection, schedule: Q01DX009 (ip), vehicle: steriod suspending solution) 180 % of control. Moreover, the T/C is 190 % of control (endpoint: median survival time, dose: 100.0 mg/kg/injection, schedule: Q01DX009 (ip), vehicle: water); 390 % of control (endpoint: median survival time, dose: 100.0 mg/kg/injection, schedule: Q03HX024 (ip), vehicle: water); 205 % of control (endpoint: median survival time, dose: 200.0 mg/kg/injection, schedule: Q01DX009 (ip), vehicle: steriod suspending solution); 240 % of control (endpoint: median survival time, dose: 200.0 mg/kg/injection, schedule: Q01DX009 (ip), vehicle: water); 120 % of control (endpoint: median survival time, dose: 400.0 mg/kg/injection, schedule: Q01DX001 (oral), vehicle: water); 340 % of control (endpoint: median survival time, dose: 400.0 mg/kg/injection, schedule: Q01DX009 (ip), vehicle: steriod suspending solution). Moreover, the T/C is 450 % of control (endpoint: median survival time, dose: 400.0 mg/kg/injection, schedule: Q01DX009 (ip), vehicle: water) and 150 % of control (endpoint: median survival time, dose: 800.0 mg/kg/injection, schedule: Q01DX001 (ip), vehicle: water).

Regarding `c1ccc([P+](CCCCCCCCCC[P+](c2ccccc2)(c2ccccc2)c2ccccc2)(c2ccccc2)c2ccccc2)cc1`, the T/C under setting [9] was 105 % of control, the T/C under setting [10] was 102 % of control and the T/C under setting [11] was 110 % of control.

In the case of `CC1C[N+](C)(C)CC(C)C1=O` (configuration not stated), the T/C reads like this: (endpoint: mean survival time, dose: 12.5 mg/kg/injection, schedule: Q04DX002 (ip), vehicle: saline with Tween-80) 96 % of control; (endpoint: mean survival time, dose: 25.0 mg/kg/injection, schedule: Q04DX002 (ip), vehicle: saline with Tween-80) 107 % of control; (endpoint: mean survival time, dose: 50.0 mg/kg/injection, schedule: Q04DX002 (ip), vehicle: saline with Tween-80) 93 % of control.

On to `Cc1ccc(C2NC(=O)c3ccccc3N2)s1` (configuration not stated), for which the T/C is, setting by setting: (endpoint: mean survival time, dose: 50.0 mg/kg/injection, schedule: Q01DX009 (ip), vehicle: Klucel (hydroxypropylcellulose) (HPC)) 107 % of control and 92 % of control; under setting [7], 98 % of control and 105 % of control; (endpoint: mean survival time, dose: 150.0 mg/kg/injection, schedule: Q01DX009 (ip), vehicle: Klucel (hydroxypropylcellulose) (HPC)) 102 % of control; under setting [8], 108 % of control; (endpoint: mean survival time, dose: 400.0 mg/kg/injection, schedule: Q01DX009 (ip), vehicle: Klucel (hydroxypropylcellulose) (HPC)) 87 % of control.

Take `CCCNC(C)(C)C(SS)c1ccc(C(F)(F)F)cc1` (configuration not stated): the T/C runs as follows: (endpoint: mean survival time, dose: 12.5 mg/kg/injection, schedule: Q01DX009 (ip), vehicle: other) 89 % of control; (endpoint: mean survival time, dose: 12.5 mg/kg/injection, schedule: Q04DX003 (ip), vehicle: other) 94 % of control; (endpoint: mean survival time, dose: 25.0 mg/kg/injection, schedule: Q01DX009 (ip), vehicle: other) 95 % of control; (endpoint: mean survival time, dose: 25.0 mg/kg/injection, schedule: Q04DX003 (ip), vehicle: other) 96 % of control; (endpoint: mean survival time, dose: 50.0 mg/kg/injection, schedule: Q01DX009 (ip), vehicle: other) 95 % of control; (endpoint: mean survival time, dose: 50.0 mg/kg/injection, schedule: Q04DX003 (ip), vehicle: other) 89 % of control.

With `CCN(CC)c1ccc(N=Nc2c(C)nc(N)nc2-c2ccccc2)cc1`, the T/C under setting [9] was 103 % of control; the T/C under setting [10] was 96 % of control; the T/C under setting [11] was 91 % of control; the T/C (endpoint: mean survival time, dose: 40.0 mg/kg/injection, schedule: Q01DX001 (ip), vehicle: saline) was 92 % of control; the T/C (endpoint: mean survival time, dose: 80.0 mg/kg/injection, schedule: Q01DX001 (ip), vehicle: saline) was 87 % of control.

As for `CCOC(=O)NN(C(=O)OCC)C1COCCO1` (configuration not stated), the T/C is 98 % of control (endpoint: mean survival time, dose: 50.0 mg/kg/injection, schedule: Q04DX002 (ip), vehicle: saline); 103 % of control (endpoint: mean survival time, dose: 100.0 mg/kg/injection, schedule: Q04DX002 (ip), vehicle: saline); 103 % of control (endpoint: mean survival time, dose: 200.0 mg/kg/injection, schedule: Q04DX002 (ip), vehicle: saline).

Consider `CCCCC=C1CC(C)CC(C)C1` (configuration not stated), for which the T/C runs as follows: under setting [3], 93 % of control; under setting [1], 93 % of control.

On to `CCNCCCCNCC`, for which the T/C is 95 % of control (endpoint: mean survival time, dose: 25.0 mg/kg/injection, schedule: Q01DX009 (ip), vehicle: saline with Tween-80); 98 % of control under setting [4]; 101 % of control under setting [3]; 91 % of control under setting [5]; 94 % of control and 87 % of control under setting [6].

For `CCCCCCN(CCCCCC)C(F)(F)C(=O)Nc1ccc(S(=O)(=O)c2ccc(NC(=O)C(F)(F)N(CCCCCC)CCCCCC)cc2)cc1`, the T/C runs as follows: (endpoint: mean survival time, dose: 12.5 mg/kg/injection, schedule: Q01DX001 (ip), vehicle: saline) 105 % of control; (endpoint: mean survival time, dose: 25.0 mg/kg/injection, schedule: Q01DX001 (ip), vehicle: saline) 100 % of control; (endpoint: mean survival time, dose: 50.0 mg/kg/injection, schedule: Q01DX001 (ip), vehicle: saline) 107 % of control.
